In one experiment the test system is NF-κB. Kind of experiment: NF-κB reporter gene assay (TNF-α stimulated A549/NF-κB-luc cells). Format: cell-based. The following applies: Homo sapiens, TNF-α stimulation. As to the method:
In order to evaluate NF-κB inhibitory activity of the present compounds, NF-κB reporter gene assay was carried out. The specific method is described below.
Gene recombinant human TNF-α (available from R&D systems, Cat No. 210-TA) was dissolved in D-PBS(−) (available from Wako Pure Chemical Industries, Ltd., Cat No. 293-72601) to prepare 100 μg/mL of TNF-α solution stock solution. 100 μg/mL of the TNF-α solution stock solution was diluted with the culture medium to prepare 10 ng/mL of TNF-α solution.
A549/NF-κB-luc cells (available from Panomics, Cat No. LR0051) were prepared at 375,000 cells/mL in the culture medium. The 375,000 cells/mL A549/NF-κB-luc cell suspension was seeded at 80 μL each on a white 96-well plate (available from Greiner, Cat No. 655073). One hour after seeding the cells, 10 μL of 2% DMSO solution (control) and each compound solution in each concentration were added to each well of the 96-well plate. One hour after the addition of each compound solution, 10 ng/mL of the TNF-α solution (10 μL) was added to each well of the 96-well plate. Three hours after the addition of 10 ng/mL of the TNF-α solution, 100 μL of Steady-Glo reagent (available from Promega, Cat No. E2510) was added to each well of the 96-well plate. After 30 to 90 minutes of the addition of the Steady-Glo reagent, the luminescence intensity of each well was detected by EnVision multilabel counter (available from PerkinElmer).
NF-κB inhibition rate (%) was calculated by the following equation using Microsoft EXCEL 2010. NF-κB inhibition rate (%)=100−{(luminescence intensity average value of each compound added well)−(average value of luminescence intensity of blank well))/(average value of luminescence intensity of control well)−(average value of luminescence intensity of blank well)}×100 In addition, IC50 values were calculated from the calculated NF-κB inhibition rate (%) using curve fitting software XLfit (available from IDBS).
On the technique in general: Reporter assays use an easily measured gene product as a stand-in for the process of interest.

In experiment [1] the target is Recombinant BRD4 (44-168) protein (Homo sapiens (Human), UniProt O60885). Kind of experiment: BRD4-H4KAc4 binding assay (amplified luminescence proximity homogeneous assay, AlphaScreen). Conditions: 10 uM. Here is the method: In order to evaluate BRD4 inhibitory activity of the present compounds, BRD4-H4KAc4 binding assay was carried out by an amplified luminescence proximity homogeneous assay. The specific method is described below.
H4KAc4 peptide (available from Toray Research Center, Inc., sequence SGRGK(Ac)GGK(Ac)GLGK(Ac)GGAK(Ac)RHR-K(Biotin)-NH2) was dissolved in 1×Assay buffer to prepare 1 mM H4KAc4 peptide stock solution.
N-terminal His tag/C-terminal FLAG tag-fused type Recombinant BRD4 (44-168) protein (available from Active Motif, Cat No. 31380) was diluted with 1×Assay buffer to 1,250-fold to prepare 250 nM BRD4 solution.
1% DMSO solution (control) and 2 μL of each compound solution in each concentration were added to each well of AlphaPlate-384 (from PerkinElmer, Cat No. 6008350). Next, 2 μL of 250 nM BRD4 solution was added to each well of AlphaPlate-384. Further, 2 μL of 250 nM H4KAc4 peptide solution was added to each well of AlphaPlate-384. After addition of the 250 nM H4KAc4 peptide solution, the mixture was allowed to stand at room temperature under light shielding for 60 minutes, and 4 μL of AlphaScreen beads were added to each well of AlphaPlate-384. After addition of the AlphaScreen beads, the mixture was allowed to stand at room temperature under light shielding for 60 minutes, emission at 520-620 nm upon excitation at 680 nm was detected by EnVision multilabel counter (from PerkinElmer), and binding of BRD4 and H4KAc4 was detected. Incidentally, the evaluation of each compound was carried out in duplicate (2 well per 1 compound).
The BRD4 inhibition rate (%) was calculated by the following equation using Microsoft EXCEL 2010. BRD4 inhibition rate (%)=100−{(luminescence intensity average value of each compound added well)−(average value of luminescence intensity of blank well))/(average value of luminescence intensity of control well)−(average value of luminescence intensity of blank well)}×100
(In general: Alpha assays give light when donor and acceptor beads are brought close together.)

SMILES strings stand for the structures.

For orientation: IC50 means the concentration that gives 50% inhibition. A higher IC50 goes with weaker potency. As a reminder, the inhibition is the change of the read-out against control, counted positive when it falls. For the molecule `Cc1sc2c(c1C)C(c1ccc(Cl)cc1)=NN(Cc1ncccc1Cl)c1nnc(C)n1-2` [Example 24, 4-(4-chlorophenyl)-6-((3-chloropyridin-2-yl)methyl)-2,3,9-trimethyl-6H-thieno[2,3-e][1,2,4]triazolo[3,4-c][1,2,4]triazepine], half-maximal inhibition in the experiment with NF-κB (IC50) required 1050 nM. The inhibition at 10 µM in experiment [1] stood at 100%.

Regarding `Cc1sc2c(c1C)C(c1ccc(Cl)cc1)=NN(Cc1ccc(F)nc1)c1nnc(C)n1-2` [Example 26, 4-(4-chlorophenyl)-6-((6-fluoropyridin-3-yl)methyl)-2,3,9-trimethyl-6H-thieno[2,3-e][1,2,4]triazolo[3,4-c][1,2,4]triazepine], the half-maximal inhibitory concentration (IC50) with NF-κB amounted to 12.3 nM. Moreover, the inhibition at 10 µM in experiment [1] worked out at 100%.

Molecule `Cc1sc2c(c1C)C(c1ccccc1)=NNc1nnc(C)n1-2` [Example 27, 2,3,9-trimethyl-4-phenyl-6H-thieno[2,3-e][1,2,4]triazolo[3,4-c][1,2,4]triazepine] had an IC50 with NF-κB of 3100 nM. Moreover, in experiment [1], the inhibition at 10 µM came to 101%.

The molecule `Cc1sc2c(c1C)C(c1ccccc1)=NN(Cc1ccccc1)c1nnc(C)n1-2` [Example 29, 6-benzyl-2,3,9-trimethyl-4-phenyl-6H-thieno[2,3-e][1,2,4]triazolo[3,4-c][1,2,4]triazepine] displayed an IC50 in the experiment with NF-κB of 265 nM. Besides, the inhibition at 10 µM in experiment [1] came out at 101%.

Turning to `COc1cccc(CN2N=C(c3ccccc3)c3c(sc(C)c3C)-n3c(C)nnc32)c1` [Example 33, 6-(3-methoxybenzyl)-2,3,9-trimethyl-4-phenyl-6H-thieno[2,3-e][1,2,4]triazolo[3,4-c][1,2,4]triazepine], the IC50 with NF-κB was found to be 87.2 nM. Moreover, the inhibition at 10 µM in experiment [1] was 99.2%.

Turning to `COc1ccccc1CN1N=C(c2ccc(Cl)cc2)c2c(sc(C)c2C)-n2c(C)nnc21` [Example 34, 4-(4-chlorophenyl)-6-(2-methoxybenzyl)-2,3,9-trimethyl-6H-thieno[2,3-e][1,2,4]triazolo[3,4-c][1,2,4]triazepine], the midpoint of inhibition with NF-κB, the IC50, lay at 612 nM. The inhibition at 10 µM in experiment [1] came to 100%.

Consider `Cc1sc2c(c1C)C(c1ccc(Cl)cc1)=NN(Cc1ccc(Cl)cn1)c1nnc(C)n1-2` [Example 36, 4-(4-chlorophenyl)-6-((5-chloropyridin-2-yl)methyl)-2,3,9-trimethyl-6H-thieno[2,3-e][1,2,4]triazolo[3,4-c][1,2,4]triazepine], for which, in the experiment with NF-κB, inhibition was half-maximal at 401 nM (IC50). The inhibition at 10 µM in experiment [1] amounted to 100%.

As for `Cc1sc2c(c1C)C(c1ccc(Cl)cc1)=NN(Cc1cncc(Cl)c1)c1nnc(C)n1-2` [Example 39, 4-(4-chlorophenyl)-6-((5-chloropyridin-3-yl)methyl)-2,3,9-trimethyl-6H-thieno[2,3-e][1,2,4]triazolo[3,4-c][1,2,4]triazepine], the IC50 in the experiment with NF-κB worked out at 620 nM. In addition, the inhibition at 10 µM in experiment [1] amounted to 100%.

The molecule `Cc1sc2c(c1C)C(c1ccc(Cl)cc1)=NN(Cc1cc(Cl)ccn1)c1nnc(C)n1-2` [Example 40, 4-(4-chlorophenyl)-6-((4-chloropyridin-2-yl)methyl)-2,3,9-trimethyl-6H-thieno[2,3-e][1,2,4]triazolo[3,4-c][1,2,4]triazepine] came in with an IC50 in the experiment with NF-κB of 699 nM. Further, in experiment [1], the inhibition at 10 µM stood at 100%.

As to `Cc1sc2c(c1C)C(c1ccc(Cl)cc1)=NN(Cc1ccnc(F)c1)c1nnc(C)n1-2` [Example 42, 4-(4-chlorophenyl)-6-((2-fluoropyridin-4-yl)methyl)-2,3,9-trimethyl-6H-thieno[2,3-e][1,2,4]triazolo[3,4-c][1,2,4]triazepine], the IC50 in the experiment with NF-κB was determined as 1150 nM. Besides, the inhibition at 10 µM in experiment [1] was 100%.

`Cc1sc2c(c1C)C(c1ccc(Cl)cc1)=NN(Cc1cnccc1Cl)c1nnc(C)n1-2` [Example 43, 4-(4-chlorophenyl)-6-((4-chloropyridin-3-yl)methyl)-2,3,9-trimethyl-6H-thieno[2,3-e][1,2,4]triazolo[3,4-c][1,2,4]triazepine] yielded an IC50 with NF-κB of 1830 nM. The inhibition at 10 µM in experiment [1] was found to be 100%.

`Cc1sc2c(c1C)C(c1ccc(Cl)cc1)=NN(CCc1c[nH]c3ccccc13)c1nnc(C)n1-2` [Example 44, 6-(2-(1H-indol-3-yl)ethyl)-4-(4-chlorophenyl)-2,3,9-trimethyl-6H-thieno[2,3-e][1,2,4]triazolo[3,4-c][1,2,4]triazepine] displayed an IC50 in the experiment on NF-κB of 9850 nM. The inhibition at 10 µM in experiment [1] was determined as 99.3%.

As for `Cc1sc2c(c1C)C(c1ccc(Cl)cc1)=NN(Cc1cccs1)c1nnc(C)n1-2` [Example 45, 4-(4-chlorophenyl)-2,3,9-trimethyl-6-(thiophen-2-ylmethyl)-6H-thieno[2,3-e][1,2,4]triazolo[3,4-c][1,2,4]triazepine], the IC50 in the experiment on NF-κB stood at 429 nM. The inhibition at 10 µM in experiment [1] was found to be 99.9%.

In the experiment on NF-κB, `COc1cccc(CN2N=C(c3ccc(Cl)cc3)c3c(sc(C)c3C)-n3c(C)nnc32)n1` [Example 46, 4-(4-chlorophenyl)-6-((6-methoxypyridin-2-yl)methyl)-2,3,9-trimethyl-6H-thieno[2,3-e][1,2,4]triazolo[3,4-c][1,2,4]triazepine] gave an IC50 of 683 nM. The inhibition at 10 µM in experiment [1] was determined as 100%.

In turn, `COc1ccc(CN2N=C(c3ccc(Cl)cc3)c3c(sc(C)c3C)-n3c(C)nnc32)nc1` [Example 47, 4-(4-chlorophenyl)-6-((5-methoxypyridin-2-yl)methyl)-2,3,9-trimethyl-6H-thieno[2,3-e][1,2,4]triazolo[3,4-c][1,2,4]triazepine] returned an IC50 in the experiment with NF-κB of 554 nM. Further, in experiment [1], the inhibition at 10 µM was 100%.

In the experiment with NF-κB, `COc1ccnc(CN2N=C(c3ccc(Cl)cc3)c3c(sc(C)c3C)-n3c(C)nnc32)c1` [Example 48, 4-(4-chlorophenyl)-6-((4-methoxypyridin-2-yl)methyl)-2,3,9-trimethyl-6H-thieno[2,3-e][1,2,4]triazolo[3,4-c][1,2,4]triazepine] gave an IC50 of 297 nM. Further, in experiment [1], the inhibition at 10 µM was 100%.

`COc1ccc(CN2N=C(c3ccc(Cl)cc3)c3c(sc(C)c3C)-n3c(C)nnc32)cn1` [Example 50, 4-(4-chlorophenyl)-6-((6-methoxypyridin-3-yl)methyl)-2,3,9-trimethyl-6H-thieno[2,3-e][1,2,4]triazolo[3,4-c][1,2,4]triazepine] came in with an IC50 in the experiment on NF-κB of 355 nM. The inhibition at 10 µM in experiment [1] worked out at 100%.

`COc1ccncc1CN1N=C(c2ccc(Cl)cc2)c2c(sc(C)c2C)-n2c(C)nnc21` [Example 51, 4-(4-chlorophenyl)-6-((4-methoxypyridin-3-yl)methyl)-2,3,9-trimethyl-6H-thieno[2,3-e][1,2,4]triazolo[3,4-c][1,2,4]triazepine]: half-maximal inhibition in the experiment on NF-κB (IC50) was put at 265 nM. Besides, the inhibition at 10 µM in experiment [1] was 100%.

In turn, `Cc1sc2c(c1C)C(c1ccc(Cl)cc1)=NN(Cc1cccc(N)c1)c1nnc(C)n1-2` [Example 52, 3-((4-(4-chlorophenyl)-2,3,9-trimethyl-6H-thieno[2,3-e][1,2,4]triazolo[3,4-c][1,2,4]triazepin-6-yl)methyl)aniline] registered an IC50 in the experiment on NF-κB of 5230 nM. Also, the inhibition at 10 µM in experiment [1] amounted to 100%.

In the case of `Cc1sc2c(c1C)C(c1ccc(Cl)cc1)=NN(Cc1cccc(O)c1)c1nnc(C)n1-2` [Example 53, 3-((4-(4-chlorophenyl)-2,3,9-trimethyl-6H-thieno[2,3-e][1,2,4]triazolo[3,4-c][1,2,4]triazepin-6-yl)methyl)phenol], in the experiment with NF-κB, it took 2980 nM to reach half-maximal inhibition (IC50). Further, in experiment [1], the inhibition at 10 µM came to 100%.

The record behind these values is US11186588B2 (AYUMI PHARMACEUTICAL CORPORATION, priority 2017, dated 2021).
